# Experimental data as given in ChEMBL document CHEMBL1909046, “DrugMatrix in vitro pharmacology data”.
# pIC50, pKi: −log10 of the molar value.
# Columns and labels:
# [1] = biological target: Kappa-type opioid receptor (Homo sapiens, UniProt P41145); experiment: DRUGMATRIX: Opiate kappa (OP2, KOP) radioligand binding (ligand: [3H] Diprenorphine); type: cell membranes, HEK293, Membrane; conditions: hek293; Not Active = under 50% inhibition at 10 µM
# [2] = DRUGMATRIX: Phosphodiesterase PDE3 enzyme inhibition (substrate: [3H]cAMP + cAMP); type: tissue-based, Homo sapiens; conditions: platelet; Not Active = under 50% inhibition at 10 µM
# [3] = biological target: Beta-1 adrenergic receptor (Homo sapiens, UniProt P08588); experiment: DRUGMATRIX: Adrenergic beta1 radioligand binding (ligand: [125I] Cyanopindolol); type: cell membranes, CHO-K1, Membrane; conditions: cho-k1; Not Active = under 50% inhibition at 10 µM
# Sequence of Beta-1 adrenergic receptor (P08588 whole entry): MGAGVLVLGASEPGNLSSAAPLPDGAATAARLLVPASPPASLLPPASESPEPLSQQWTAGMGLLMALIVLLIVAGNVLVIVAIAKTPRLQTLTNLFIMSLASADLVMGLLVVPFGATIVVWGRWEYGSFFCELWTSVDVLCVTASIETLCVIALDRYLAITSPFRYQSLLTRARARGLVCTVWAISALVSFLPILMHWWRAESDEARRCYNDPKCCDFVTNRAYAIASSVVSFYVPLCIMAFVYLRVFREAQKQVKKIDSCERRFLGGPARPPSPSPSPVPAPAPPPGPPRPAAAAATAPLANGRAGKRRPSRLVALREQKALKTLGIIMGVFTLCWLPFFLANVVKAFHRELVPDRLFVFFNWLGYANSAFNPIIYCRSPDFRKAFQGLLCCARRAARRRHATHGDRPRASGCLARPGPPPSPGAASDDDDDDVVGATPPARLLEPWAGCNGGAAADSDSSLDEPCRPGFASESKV
# [4] = biological target: T1, Caspase-1 (Homo sapiens, UniProt P29466); set-up: species or system Escherichia coli;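 also: Caspase-1 enzyme inhibition assay with a peptide substrate; in other assays of this panel Not Active means under 50% inhibition at 10 µM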
# T1 sequence (P29466 whole entry): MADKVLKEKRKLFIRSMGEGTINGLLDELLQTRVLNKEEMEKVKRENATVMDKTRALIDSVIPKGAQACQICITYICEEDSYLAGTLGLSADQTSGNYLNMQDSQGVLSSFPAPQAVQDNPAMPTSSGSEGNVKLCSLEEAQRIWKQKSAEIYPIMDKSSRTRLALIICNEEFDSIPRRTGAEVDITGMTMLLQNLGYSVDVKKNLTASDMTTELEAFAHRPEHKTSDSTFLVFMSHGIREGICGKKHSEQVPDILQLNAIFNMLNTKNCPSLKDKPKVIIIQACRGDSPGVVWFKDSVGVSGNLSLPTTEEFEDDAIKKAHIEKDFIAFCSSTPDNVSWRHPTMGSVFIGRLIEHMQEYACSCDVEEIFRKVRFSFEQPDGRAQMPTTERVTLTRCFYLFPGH
# [5] = biological target: T2, Cholecystokinin receptor type A (Homo sapiens, UniProt P32238); type: cell membranes, Membrane; conditions: 1321-n1; also: in other assays of this panel Not Active means under 50% inhibition at 10 µM
# T2 sequence (P32238 whole entry): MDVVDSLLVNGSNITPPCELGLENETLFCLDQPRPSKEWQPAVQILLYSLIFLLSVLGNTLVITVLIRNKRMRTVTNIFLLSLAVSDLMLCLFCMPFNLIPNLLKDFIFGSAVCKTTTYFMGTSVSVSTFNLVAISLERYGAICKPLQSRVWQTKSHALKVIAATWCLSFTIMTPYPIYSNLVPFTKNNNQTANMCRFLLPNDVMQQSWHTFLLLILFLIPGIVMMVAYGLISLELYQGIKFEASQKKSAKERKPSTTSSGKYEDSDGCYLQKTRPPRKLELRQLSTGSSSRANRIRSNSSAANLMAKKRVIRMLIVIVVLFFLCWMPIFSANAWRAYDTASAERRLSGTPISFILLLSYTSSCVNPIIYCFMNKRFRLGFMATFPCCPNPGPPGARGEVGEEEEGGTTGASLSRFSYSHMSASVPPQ
# [6] = biological target: T3, Angiotensin-converting enzyme (Oryctolagus cuniculus, UniProt P12822); type: tissue-based, Lung;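 also: enzymatic inhibition of angiotensin-converting enzyme measured with FAPGG as the substrate; in other assays of this panel Not Active means under 50% inhibition at 10 µM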
# T3 sequence (P12822 whole entry): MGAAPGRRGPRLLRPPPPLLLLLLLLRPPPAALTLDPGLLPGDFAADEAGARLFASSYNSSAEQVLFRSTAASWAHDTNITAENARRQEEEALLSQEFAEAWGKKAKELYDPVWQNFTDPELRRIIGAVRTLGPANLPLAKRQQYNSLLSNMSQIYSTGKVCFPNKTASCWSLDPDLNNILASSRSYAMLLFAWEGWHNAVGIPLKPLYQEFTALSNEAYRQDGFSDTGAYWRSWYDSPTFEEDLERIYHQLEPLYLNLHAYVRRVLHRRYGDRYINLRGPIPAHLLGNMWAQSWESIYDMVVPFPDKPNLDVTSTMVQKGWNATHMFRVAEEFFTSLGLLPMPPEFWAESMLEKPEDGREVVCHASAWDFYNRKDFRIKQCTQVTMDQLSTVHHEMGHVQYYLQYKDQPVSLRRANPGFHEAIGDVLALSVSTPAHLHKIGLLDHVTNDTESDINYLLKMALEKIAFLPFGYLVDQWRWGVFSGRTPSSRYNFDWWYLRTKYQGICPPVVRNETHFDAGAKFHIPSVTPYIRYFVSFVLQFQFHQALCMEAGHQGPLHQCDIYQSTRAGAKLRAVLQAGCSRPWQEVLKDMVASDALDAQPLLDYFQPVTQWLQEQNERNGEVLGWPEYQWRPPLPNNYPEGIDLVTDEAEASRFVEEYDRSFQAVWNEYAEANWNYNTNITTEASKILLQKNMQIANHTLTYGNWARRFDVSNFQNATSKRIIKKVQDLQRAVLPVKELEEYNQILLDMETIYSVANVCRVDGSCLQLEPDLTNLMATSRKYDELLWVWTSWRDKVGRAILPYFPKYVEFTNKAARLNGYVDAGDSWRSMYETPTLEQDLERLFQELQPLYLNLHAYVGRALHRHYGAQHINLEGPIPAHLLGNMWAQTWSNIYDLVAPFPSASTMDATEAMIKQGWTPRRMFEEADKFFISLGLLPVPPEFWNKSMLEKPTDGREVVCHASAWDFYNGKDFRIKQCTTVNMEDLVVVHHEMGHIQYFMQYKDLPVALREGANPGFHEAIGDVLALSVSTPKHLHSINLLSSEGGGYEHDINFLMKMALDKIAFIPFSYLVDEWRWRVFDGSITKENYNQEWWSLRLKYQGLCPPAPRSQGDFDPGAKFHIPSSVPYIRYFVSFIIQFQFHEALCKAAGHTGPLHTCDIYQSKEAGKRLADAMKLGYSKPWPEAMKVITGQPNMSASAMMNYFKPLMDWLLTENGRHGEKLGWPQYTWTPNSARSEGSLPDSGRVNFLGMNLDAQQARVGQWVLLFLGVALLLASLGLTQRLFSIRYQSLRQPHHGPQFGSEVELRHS
# [7] = DRUGMATRIX: GABAA, Chloride Channel, TBOB radioligand binding (ligand: [3H] TBOB); type: cell membranes, Rattus norvegicus, Wistar, Cerebral cortex, Membrane; conditions: Not Active = under 50% inhibition at 10 µM
# [8] = biological target: 5-hydroxytryptamine receptor 2B (Homo sapiens, UniProt P41595); type: cell membranes, CHO-K1, Membrane; conditions: for IC50: cho-k1; as to all read-outs here: in other assays of this panel Not Active means under 50% inhibition at 10 µM
# Sequence of 5-hydroxytryptamine receptor 2B (P41595 whole entry): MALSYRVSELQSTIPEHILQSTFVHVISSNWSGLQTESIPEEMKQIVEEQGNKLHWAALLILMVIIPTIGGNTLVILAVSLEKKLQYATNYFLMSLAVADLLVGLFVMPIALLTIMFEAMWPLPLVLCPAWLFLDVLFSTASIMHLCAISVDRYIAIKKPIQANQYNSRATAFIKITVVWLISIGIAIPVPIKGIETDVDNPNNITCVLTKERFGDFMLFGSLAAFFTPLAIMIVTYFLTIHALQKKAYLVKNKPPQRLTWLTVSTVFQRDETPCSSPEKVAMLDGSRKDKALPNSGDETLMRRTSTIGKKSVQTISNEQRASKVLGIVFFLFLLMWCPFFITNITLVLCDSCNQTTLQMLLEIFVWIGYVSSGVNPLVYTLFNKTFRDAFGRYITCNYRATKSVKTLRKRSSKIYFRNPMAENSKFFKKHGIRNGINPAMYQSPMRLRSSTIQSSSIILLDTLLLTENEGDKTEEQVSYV
# Sequence of Kappa-type opioid receptor (P41145 whole entry): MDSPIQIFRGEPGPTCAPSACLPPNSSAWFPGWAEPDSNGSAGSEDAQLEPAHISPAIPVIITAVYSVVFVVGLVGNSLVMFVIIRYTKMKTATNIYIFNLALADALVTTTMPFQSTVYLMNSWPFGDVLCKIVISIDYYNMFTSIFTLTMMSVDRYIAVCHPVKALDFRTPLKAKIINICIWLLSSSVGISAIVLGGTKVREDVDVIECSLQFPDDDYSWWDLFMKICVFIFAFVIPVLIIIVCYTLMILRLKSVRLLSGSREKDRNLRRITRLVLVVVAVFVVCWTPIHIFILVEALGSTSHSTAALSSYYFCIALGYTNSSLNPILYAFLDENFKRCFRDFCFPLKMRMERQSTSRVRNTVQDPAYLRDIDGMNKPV
SMILES,IC50 [1],IC50 [2],Ki [2],IC50 [3],IC50 [4],IC50 [5],IC50 [6],IC50 [7],Ki [7],IC50 [8],pIC50 ([8]; read-out: IC50),pKi ([8]; read-out: Ki)
O=P(O)(O)C(O)(Cc1cccnc1)P(=O)(O)O [RISEDRONIC ACID],Not Active,Not Active,Not Active,Not Active,Not Active,Not Active,Not Active,Not Active,Not Active,Not Active,–,–
CN(CCOc1ccc(CC2SC(=O)NC2=O)cc1)c1ccccn1 (stereo unspecified) [ROSIGLITAZONE],Not Active,Not Active,Not Active,Not Active,Not Active,Not Active,Not Active,Not Active,Not Active,Not Active,–,–
C#CCN(C)[C@H](C)Cc1ccccc1 [SELEGILINE],Not Active,Not Active,Not Active,Not Active,Not Active,Not Active,Not Active,Not Active,Not Active,Not Active,–,–
CO[C@H]1C[C@@H]2CC[C@@H](C)[C@@](O)(O2)C(=O)C(=O)N2CCCC[C@H]2C(=O)O[C@H]([C@H](C)C[C@@H]2CC[C@@H](O)[C@H](OC)C2)CC(=O)[C@H](C)/C=C(\C)[C@@H](O)[C@@H](OC)C(=O)[C@H](C)C[C@H](C)/C=C/C=C/C=C/1C [SIROLIMUS],Not Active,Not Active,Not Active,Not Active,Not Active,Not Active,Not Active,Not Active,Not Active,Not Active,–,–
CN[C@@H]1[C@H](O)[C@H](NC)[C@H]2O[C@@]3(O)C(=O)C[C@@H](C)O[C@H]3O[C@@H]2[C@H]1O [SPECTINOMYCIN],Not Active,Not Active,Not Active,Not Active,Not Active,Not Active,Not Active,Not Active,Not Active,Not Active,–,–
Nc1ccc(S(=O)(=O)Nc2ncccn2)cc1 [SULFADIAZINE],Not Active,Not Active,Not Active,Not Active,Not Active,Not Active,Not Active,Not Active,Not Active,Not Active,–,–
COc1ncnc(NS(=O)(=O)c2ccc(N)cc2)c1OC [SULFADOXINE],Not Active,Not Active,Not Active,Not Active,Not Active,Not Active,Not Active,Not Active,Not Active,Not Active,–,–
Nc1ccc(S(=O)(=O)Nc2nccs2)cc1 [SULFATHIAZOLE],Not Active,Not Active,Not Active,Not Active,Not Active,Not Active,Not Active,Not Active,Not Active,Not Active,–,–
C[C@]12CC[C@H]3[C@@H](CCC4=CC(=O)CC[C@@]43C)[C@@H]1CC[C@@H]2O [TESTOSTERONE],Not Active,Not Active,Not Active,Not Active,Not Active,Not Active,Not Active,Not Active,Not Active,Not Active,–,–
CCS(=O)(=O)CCn1c([N+](=O)[O-])cnc1C [TINIDAZOLE],Not Active,Not Active,Not Active,Not Active,Not Active,Not Active,Not Active,Not Active,Not Active,Not Active,–,–
C[C@@H]1C[C@H]2[C@@H]3CCC4=CC(=O)C=C[C@]4(C)C3=CC[C@]2(C)[C@H]1C(=O)CN1CCN(c2cc(N3CCCC3)nc(N3CCCC3)n2)CC1 [TIRILAZAD],Not Active,Not Active,Not Active,Not Active,Not Active,Not Active,Not Active,Not Active,Not Active,–,4.73,4.93
NC[C@H]1O[C@H](O[C@H]2[C@H](O)[C@@H](O[C@H]3O[C@H](CO)[C@@H](O)[C@H](N)[C@H]3O)[C@H](N)C[C@@H]2N)[C@H](N)C[C@@H]1O [TOBRAMYCIN],Not Active,Not Active,Not Active,Not Active,Not Active,Not Active,Not Active,Not Active,Not Active,Not Active,–,–
COc1ccc(CN2CCNCC2)c(OC)c1OC [TRIMETAZIDINE],Not Active,Not Active,Not Active,Not Active,Not Active,Not Active,Not Active,Not Active,Not Active,Not Active,–,–
CC(=O)O[C@H]1C[C@@H]2CC[C@@H]3[C@H](CC[C@@]4(C)[C@H]3C[C@H]([N+]3(C)CCCCC3)[C@@H]4OC(C)=O)[C@@]2(C)C[C@@H]1N1CCCCC1.[Br-] [VECURONIUM BROMIDE],Not Active,Not Active,Not Active,Not Active,Not Active,Not Active,Not Active,Not Active,Not Active,Not Active,–,–
COc1cc(C(=O)NS(=O)(=O)c2ccccc2C)ccc1Cc1cn(C)c2ccc(NC(=O)OC3CCCC3)cc12 [ZAFIRLUKAST],Not Active,Not Active,Not Active,Not Active,Not Active,Not Active,Not Active,Not Active,Not Active,Not Active,–,–
Cc1cn([C@H]2C[C@H](N=[N+]=[N-])[C@@H](CO)O2)c(=O)[nH]c1=O [ZIDOVUDINE],Not Active,Not Active,Not Active,Not Active,Not Active,Not Active,Not Active,Not Active,Not Active,Not Active,–,–
